From paper PMC9871250, “Identification of an indole biodegradation gene cluster from Providencia rettgeri and its contribution in selectively biosynthesizing Tyrian purple” (Frontiers in Bioengineering and Biotechnology, 2023)

Biological target: T1, GS-D (Providencia rettgeri, UniProt A0ACG1W3V9)
T1 construct: gene KAH49_07450; full length, N-terminal 6xHis, pET28a in E. coli BL21(DE3), Ni-NTA
T1 sequence (A0ACG1W3V9 1-176): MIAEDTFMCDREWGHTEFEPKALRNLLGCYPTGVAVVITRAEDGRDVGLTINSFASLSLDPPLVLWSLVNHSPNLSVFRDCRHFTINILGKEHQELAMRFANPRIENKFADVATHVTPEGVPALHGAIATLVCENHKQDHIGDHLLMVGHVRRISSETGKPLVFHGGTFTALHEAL
Assay: NADH oxidation, absorbance at […] nm
Assay type: biochemical
Details: pH 8.0, 30 °C, 250 μM NADH, 100 μM FAD

Structure (SMILES): NC(=O)C1=CN([C@@H]2O[C@H](COP(=O)(O)OP(=O)(O)OC[C@H]3O[C@@H](n4cnc5c(N)ncnc54)[C@H](O)[C@@H]3O)[C@@H](O)[C@H]2O)C=CC1 [NADH]
- NADH oxidation, absorbance at 340 nm: oxidation of NADH demonstrated the flavin reductase activity of the GS-D reductase
